This note sets out measurements from PMC9814657, “Generative and reinforcement learning approaches for the automated de novo design of bioactive compounds” (Communications Chemistry, 2022).

The target of experiment [1] is T1, epidermal growth factor receptor (EGFR) (Homo sapiens, UniProt P00533). The experiment can be described thus: biochemical. Conditions: 10 uM ATP. Details: 33P radiometric HotSpot filter-binding EGFR kinase assay, 10 uM ATP, Reaction Biology. As for the experimental part: (§1) Compounds that emerged as computational hits were purchased from Enamine (https://www.enaminestore.com/) and resuspended in 100% DMSO at 10 mM concentration. In vitro experiments were performed at Reaction Biology (https://www.reactionbiology.com/) using a radioactive assay based on the transfer of ^33P-labeled phosphate from ATP to the kinase substrate. The HotSpot^SM assay utilizes a miniaturized filter binding, where reaction mixtures are spotted onto filter papers. Then reaction mixture binds the radioisotope-labeled catalytic product. Unreacted phosphate is removed via washing of the filter papers. All reactions were carried out at 10 μM ATP concentrations. Seventeen computational hit molecules were matched with Enamine REAL. All of the predicted active compounds were derivatives of 4-anilinoquinazoline, a chemotype that was well represented in Enamine REAL (Table S1). The predicted active compounds contained a few small substituents on the quinazoline ring (positions 5–8: F, Cl, Br, OCH3) but a wide range of substituents on the 4-anilino group. […] The twenty three 4-anilinoquinazoline analogs were dissolved in DMSO and sent to Reaction Biology (https://www.reactionbiology.com/) for EGFR enzymatic assay screening. Two compounds in the predicted active series were insoluble in DMSO; therefore, biological tests were not performed. The 4-anilinoquinazoline analogs were initially tested in single-dose duplicate mode at a concentration of 1 μM and percent inhibition relative to DMSO control was determined (Table S1).
T1 sequence (P00533 25-1210): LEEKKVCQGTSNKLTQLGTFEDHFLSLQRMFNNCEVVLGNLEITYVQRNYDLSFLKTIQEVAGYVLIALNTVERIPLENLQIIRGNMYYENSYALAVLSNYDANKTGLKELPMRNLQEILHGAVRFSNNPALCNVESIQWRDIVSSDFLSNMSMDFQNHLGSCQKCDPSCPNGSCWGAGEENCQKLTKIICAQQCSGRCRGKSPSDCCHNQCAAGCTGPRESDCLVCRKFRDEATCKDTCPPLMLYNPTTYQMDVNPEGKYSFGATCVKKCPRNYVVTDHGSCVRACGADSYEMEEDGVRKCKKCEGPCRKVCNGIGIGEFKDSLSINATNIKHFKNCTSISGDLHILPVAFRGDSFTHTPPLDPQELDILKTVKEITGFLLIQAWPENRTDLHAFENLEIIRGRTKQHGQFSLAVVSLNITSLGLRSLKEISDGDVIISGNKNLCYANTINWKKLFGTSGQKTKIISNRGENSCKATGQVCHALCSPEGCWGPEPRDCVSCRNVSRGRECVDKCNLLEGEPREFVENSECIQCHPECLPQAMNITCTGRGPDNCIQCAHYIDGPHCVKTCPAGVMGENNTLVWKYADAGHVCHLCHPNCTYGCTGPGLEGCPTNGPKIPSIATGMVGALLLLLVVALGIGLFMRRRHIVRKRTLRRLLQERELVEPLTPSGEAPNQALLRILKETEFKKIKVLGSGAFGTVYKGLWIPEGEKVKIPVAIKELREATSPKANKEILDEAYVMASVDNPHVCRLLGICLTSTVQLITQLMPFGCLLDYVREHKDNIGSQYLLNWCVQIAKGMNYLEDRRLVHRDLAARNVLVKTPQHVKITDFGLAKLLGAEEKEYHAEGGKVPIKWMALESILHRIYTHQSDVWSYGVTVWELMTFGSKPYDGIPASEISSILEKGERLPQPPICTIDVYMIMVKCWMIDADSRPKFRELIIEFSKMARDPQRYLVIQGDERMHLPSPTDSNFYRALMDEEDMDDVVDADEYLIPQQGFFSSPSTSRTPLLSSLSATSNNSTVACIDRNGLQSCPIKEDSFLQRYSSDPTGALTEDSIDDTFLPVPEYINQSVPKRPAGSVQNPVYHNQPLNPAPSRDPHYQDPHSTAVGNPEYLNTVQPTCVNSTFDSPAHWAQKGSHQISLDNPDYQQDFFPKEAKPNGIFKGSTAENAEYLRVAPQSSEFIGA

For experiment [2], the target named is T1, epidermal growth factor receptor (EGFR). As to the kind of experiment: […] radiometric HotSpot kinase assay, 10-dose IC50, […] ATP (Reaction Biology). The experiment is classed as biochemical.
The target is the same in experiment [3]. As to the kind of experiment: biochemical. Details: 33P radiometric HotSpot filter-binding EGFR kinase assay, 10 uM ATP, Reaction Biology. Conditions: 10 uM ATP; read-out: EGFR pIC50 (converted). As for the experimental part: as §1, with “REAL.” for “REAL. All of the predicted active compounds were derivatives of 4-anilinoquinazoline, a chemotype that was well represented in Enamine REAL (Table S1). The predicted active compounds contained a few small substituents on the quinazoline ring (positions 5–8: F, Cl, Br, OCH3) but a wide range of substituents on the 4-anilino group.”, “Two compounds in the predicted active series were insoluble in DMSO; therefore, biological tests were not performed.” left out

Usually inhibition stands for the drop in the measured response relative to a control, in per cent. Low values mean a response near the control, high ones a response far below the control. `OC1CCCCC1Oc1ccc(Nc2ncnc3ccc(F)cc23)cc1` (centres unmarked) [ZINC000440544230] came in with an inhibition at 1 µM in experiment [1] of 4%. On the same count and under the same terms, to `COCCOc1ccc(Nc2ncnc3cccc(F)c23)cc1F` [ZINC000480418233] belongs 8%; to `COCCOc1ccc(Nc2ncnc3c(F)cccc23)cc1Cl` [ZINC000302873009], 16%. The same measure, in the same setting: to `CN(C)C1CCN(c2ccc(Nc3ncnc4c(F)cccc34)cc2)CC1` [ZINC000302845052] belongs 12%; to `CN(C)CCc1ccc(Nc2ncnc3ccc(Cl)cc23)cc1` [ZINC000594704454], 8%. Take `Nc1c(Cl)cc(Nc2ncnc3c(F)cccc23)cc1Cl` [compound 4, Z1823625743]: the IC50 in experiment [2] is 1400 nM. `CN(C)C1CCN(c2ccc(Nc3ncnc4ccc(Br)cc34)cc2)CC1` [ZINC000301979927] registered an inhibition at 1 µM in experiment [1] of 8%.

With `Cc1ccc(Nc2ncnc3cccc(F)c23)cc1F` [ZINC000480349471], the IC50 in experiment [3] is 200 nM. Also, the inhibition at 1 µM in experiment [1] was determined as 83%. With `Nc1c(Cl)cc(Nc2ncnc3ccc(F)cc23)cc1Cl` [ZINC000301931984], the IC50 in experiment [3] is 39.8 nM. In experiment [1], this molecule had an inhibition at 1 µM of 89%. In turn, `Fc1ccc(Nc2ncnc3ccc(Br)cc23)cc1` [compound 1, Z1192045732] showed a pIC50 in experiment [2] of 7.5 pIC50. For `CN(C)CCc1ccc(Nc2ncnc3ccc(F)cc23)cc1` [ZINC000301950472], in experiment [1], 1 µM produced 10% inhibition. `Fc1ccc(Nc2ncnc3ccc(F)cc23)cc1` [ZINC000092611293] returned an inhibition at 1 µM in experiment [1] of 12%. `CNC(=O)CCOc1ccc(Nc2ncnc3cc(Cl)ccc23)cc1` [ZINC000301175853] had an inhibition at 1 µM in experiment [1] of 12%. Still for that read-out and setting: to `OCCCOc1ccc(Nc2ncnc3cc(Cl)ccc23)cc1` [ZINC000572311742] belongs 0%.

`Fc1ccc2ncnc(Nc3ccc(N4CCCC4)cc3)c2c1` [ZINC000041479925] returned an inhibition at 1 µM in experiment [1] of 8%. As for `Fc1ccc(Nc2ncnc3ccc(Br)cc23)cc1` [ZINC000000099087], the IC50 in experiment [3] is 31.6 nM. At 1 µM the inhibition in experiment [1] was 96%. In experiment [1], `CN(C)CC1CCN(c2ccc(Nc3ncnc4ccc(Br)cc34)cc2)CC1` [ZINC000737413605] returned an inhibition at 1 µM of 14%.

Regarding `Nc1c(Cl)cc(Nc2ncnc3c(F)cccc23)cc1Cl` [ZINC000302791534], the IC50 in experiment [3] was 1260 nM. The same molecule returned an inhibition at 1 µM in experiment [1] of 47%. The molecule `Nc1c(Cl)cc(Nc2ncnc3ccc(F)cc23)cc1Cl` [compound 2, Z1576525970] yielded a pIC50 in experiment [2] of 7.4 pIC50.

In the case of `CN(C)C1CCN(c2ccc(Nc3ncnc4ccc(F)cc34)cc2)CC1` [ZINC000089266948], 1 µM produced 14% inhibition in experiment [1]. The same measure, in the same setting: the same measure for `OC1CCN(c2ccc(Nc3ncnc4ccc(Br)cc34)cc2)CC1` [ZINC000112964683]: 10%. Same read-out and setting: to `COCCOc1ccc(Nc2ncnc3cc(F)c(OC)cc23)cc1F` [ZINC000302555896] belongs 12%.
